“And” between values parts separate entries of the source, which are not always exact repeats. Identical values can stand only once. Counter-ions that a name gives are not always drawn. Like-named read-outs stand apart in the source and are kept apart here.
What was measured:
[1] = test system: PC-3 prostate cancer cells; details: cited from earlier work
[2] = dog, in vivo, iv, 2.6 mg/kg; cited from earlier work
[3] = target: cyclic-adenosine monophosphate-dependent protein kinase A; details: flavopiridol; read-out: IC50, cyclic AMP-dependent protein kinase; cited from earlier work
[4] = test system: MDA-MB-468 breast cancer cells; experiment: apoptosis by QFM, Hoechst-33258 staining; type: cell-based, human; details: MDA-MB-468; flavopiridol, MMC
Experimental: PRELIMINARY STUDIES. […] Apoptosis was measured by quantitative fluorescent microscopy (QFM) of nuclear changes induced by apoptosis, as determined by bisbenzimide trihydrochloride (Hoescht-33258) staining of condensed nuclear chromatin (24). For the QFM duplicate samples of 500 cells each were counted and scored for the incidence of apoptotic chromatin condensation using an Olympus BH-2 fluorescence microscope.
Applicants also tested the PKC inhibitor UCN-01 (27) which is currently in phase I clinical trial at the NCI. In contrast to safingol, which inhibits PKC by binding to its regulatory domain, UCN-01 inhibits PKC at its catalytic domain. Therefore, assessment of the effect of UCN-01 on inducing apoptosis in combination with MMC on MDA-MB-468 was also performed. The QFM method to quantitate apoptosis was again used. The conditions tested were identical to those described above for safingol except UCN-01 (1 μM) was substituted for safingol in all the conditions.
(§1) Induction of apoptosis was estimated by counting the frequency of condensed nuclear chromatin with Hoechst-33258 stain in duplicate samples of 400 cells.

[5] = test system: PKC obtained from MKN-74 gastric cancer cells; experiment: PKC purified from MKN-74 cells, phosphorylation of myelin basic protein; type: biochemical, human; details: for PKC activity: no drug 25,000
From the text: For these experiments MKN-74 cells were homogenized and PKC was purified on a DEAE cellulose column as described (37). […] A control sample was also run with the PKC pseudosubstrate, which functions as an established PKC inhibitor. The results, as shown in the table below, are expressed as the absolute counts of [^32P]ATP incorporated into myelin basic protein/minute of assay time: […]

[6] = test system: SUDHL-4 lymphoma cells; details: cited from earlier work
[7] = test system: MDA-MB-468 cells; details: cited from earlier work
[8] = test system: bcl-2 in OV432 cells; experiment: bcl-2 expression by Western immunoblotting; type: cell-based; details: FLAVO concentrations as low as 50 nM
From the text: (§2) Over-expression of bcl-2 has been associated with resistance to chemotherapy and inhibition of apoptosis.

[9] = second phase I trial; cited from earlier work
[10] = Fischer 344 rats, cited from earlier work
[11] = test system: bcl-2 in MKN-74 cells; experiment: bcl-2 expression by Western immunoblotting; type: cell-based, human; details: 300 nM of FLAVO; co-treatment with MMC 50 μM
From the text: as §2

[12] = test system: MKN-74 cells; experiment: apoptosis by QFM, Hoechst-33258 staining; type: cell-based, human
Experimental: Apoptosis was measured by two different methods: (i) Quantitative fluorescent microscopy (QFM) of nuclear changes induced by apoptosis, as determined by bisbenzimide trihydrochloride (Hoescht-33258) staining of nuclear chromatin (15), and (ii) a terminal deoxynucleotidyl transferase (TdT) assay that labels the 3′-OH ends of DNA fragments produced in apoptotic cells (16). […] MMC was diluted in water. A stock safingol solution was constituted in DMSO and was subsequently diluted at least 1:100 in media for all experiments. […] For QFM determinations, the cells were fixed in 3% paraformaldehyde and incubated at room temperature for 10 minutes. The fixative was removed and the cells were washed with 1×PBS, resuspended in 20 μl 1×PBS containing only 8 μg/ml of bisbenzimide trihydrochloride (Hoechst #33258), and incubated at room temperature for 15 minutes. Aliquots of the cells (10 μl) were placed on glass slides coated with 3-amino-propyl-triethoxysilane, and duplicate samples of 500 cells each were counted and scored for the incidence of apoptotic chromatin condensation using an Olympus BH-2 fluorescence microscope equipped with a BH2-DM2U2UV Dich. Mirror Cube filter (Olympus, Lake Success, N.Y.). For the TdT assays, the ApopTag Kit (Oncor, Gaithersburg, Md.) was used. This method employs a fluoresceinated antidigoxigenin antibody directed against nucleotides of digoxigenin-11-dUTP (d-dUTP) which are catalytically added to the 3-ends fragmented DNA by TdT. Briefly, 1–2×10^6 cells were washed and fixed with 1% paraformaldehyde. The fixed cells were incubated in a reaction mixture containing TdT and d-dUTP for 30 minutes at 37° C. Stop/wash buffer was added, and the cells were resuspended in 100 μl of fluorescinated anti-digoxigenin antibody for 30 minutes at room temperature. The cells were then washed with 0.1% Triton X-100 and counterstained with propidium iodide (PI) solution. Green (d-dUTP labeled DNA strand breaks) and red (PI staining for total DNA content) fluorescence of individual cells were measured on a FACScan flow cytometer (Becton Dickinson, San Jose, Calif.). The resulting bivariate plots enabled the detection of apoptotic events within the cell cycle. The R1 cursor was set using the control specimen to define normal levels of green fluorescence (i.e., basal levels of apoptosis). Cells with fluorescence above the R, cursor were considered apoptotic. The data from 10,000 cells were collected and analyzed using CellFit and LYSYS software (Becton Dickinson).
Apoptosis was again measured by QFM staining.
as §1
For these studies apoptosis was measured by quantitative fluorescent microscopy (QFM) determination with bisbenzimide trihydrochloride stain (Hoescht-33258) for condensed nuclear chromatin characteristic of apoptotic cells.
For QFM determinations 500 cells were counted and scored for the incidence of apoptotic chromatin changes under an Olympus BH-2 fluorescence microscope in duplicate samples, ±SD, using a BH2-DM2U2UV Dich. Mirror Cube filter.
To study this further applicants elected to examine five bis-indolylmaleimides with various potencies against PKC. […] The induction of apoptosis was estimated by counting the frequency of condensed nuclear chromatin with Hoechst-33258 stain in duplicate samples of 400 cells.

[13] = test system: PKC; details: flavopiridol; read-out: IC50, PKC enzyme activity; cited from earlier work
[14] = test system: 183CLL; experiment: trypan blue exclusion and alamar blue assays; type: cell-based; details: FLAVO 24 hours
From the text: as §2

[15] = test system: MKN-74 cells; experiment: trypan blue exclusion and alamar blue assays; type: cell-based; details: Homo sapiens, FLAVO 24 hours
From the text: as §2

[16] = test system: OV432; experiment: trypan blue exclusion and alamar blue assays; type: cell-based; details: FLAVO 24 hours
From the text: as §2

[17] = test system: A549, HCT 8, T986, MCF-7 and HL-60 human cancer cell lines; details: cited from earlier work
[18] = cited from earlier work
[19] = test system: NU-GC-4; experiment: clonogenic assay, resistance relative to MKN-74; type: cell-based, human; details: 10 μg/ml CDDP, 5 μg/ml MMC
From the text: (§3) The basis of drug resistance in these disease has not been well defined. […] For gastric cancer applicants have been successful in establishing five long-term cell lines, SK-GT-1, SK-GT-2, SK-GT-4, SK-GT-5, and SK-GT-6 for Sloan Kettering Gastric Tumor (12,13) none of which express P-glycoprotein (14). Yet, all these tumors are resistant to chemotherapy and to the induction of apoptosis. Applicants have reported that the relative sensitivity of these gastric cancer cells to chemotherapy is influenced by their p53 status (14).

[20] = test system: SK-GT-2; experiment: clonogenic assay, resistance relative to MKN-74; type: cell-based, human; details: 10 μg/ml CDDP, 5 μg/ml MMC, 50 FM 5-FU
From the text: as §3

[21] = test system: SK-GT-5; experiment: clonogenic assay, resistance relative to MKN-74; type: cell-based, human; details: 10 μg/ml CDDP, 5 μg/ml MMC, 50 FM 5-FU
From the text: as §3

[22] = test system: MKN-74; experiment: clonogenic assay, resistance relative to MKN-74; type: cell-based, human; details: MKN-74 (reference); 10 μg/ml CDDP, 5 μg/ml MMC, 50 FM 5-FU
From the text: as §3

[23] = test system: SK-GT-1; experiment: clonogenic assay, resistance relative to MKN-74; type: cell-based, human; details: clonogenic survival ratio, 10 μg/ml CDDP, 5 μg/ml MMC, 50 FM 5-FU
From the text: as §3

[24] = test system: 16C mammary carcinoma; details: cisplatin 10 mg/kg i.v.; safingol 20 mg/kg i.p.; cited from earlier work
[25] = test system: MKN-74; experiment: cell viability, trypan blue dye exclusion; type: cell-based, human; details: 24 hours, single drug or concomitant; bryostatin 1 μM, Mitomycin-C 1 μg/ml, Taxol 50 μM, Cisplatin 50 μM
From the text: Recently our laboratory has studied the effects of combining bryostatin with chemotherapy both in vitro and in vivo against solid tumors. For our in vitro studies, we have been using the human gastric cancer cell line MKN-74. Cytotoxicity has been examined both by cell viability assays using trypan blue dye exclusion assays and by the induction of apoptosis using quantitative fluorescent microscopy.

## CN1CC[C@H](c2c(O)cc(O)c3c(=O)cc(-c4ccccc4Cl)oc23)[C@H](O)C1 (relative stereo) [flavopiridol, 2-(2-chlorophenyl)-5,7-dihydroxy-8-(cis-3-hydroxy-1-methyl-4-piperidinyl)-4H-1-benzopyran-4-one, hydrochloride]
[1]
  concentration required to produce a similar effect (apoptosis): at least 1000 nM
[2]
  tolerability: tolerated without evidence of significant toxicity
[3]
  IC50: 145000 nM
[4]
  percentage of cells undergoing apoptosis: 29%±2%
[5]; Flavopiridol 34 nM
  Percent inhibition of PKC activity: 84%
  PKC activity: 4,000 counts of [^32P]ATP incorporated into myelin basic protein/minute
[5]; Flavopiridol 340 nM
  Percent inhibition of PKC activity: 87%
  PKC activity: 3,300 counts of [^32P]ATP incorporated into myelin basic protein/minute
[6]
  concentration inducing apoptosis: 100 nM
[7]; exposure for 24 hours
  cytotoxicity: essentially no cytotoxicity
[7]; prolonged exposure for 72 hours
  cell proliferation: inhibits cell proliferation
[8]
  bcl-2 expression: complete loss of bcl-2
[9]
  t1/2: 14 h
[10]
  Maximal plasma drug concentration (Cmax): 9500 ng/mL
  Plasma clearance: 58 mL/min/kg
  elimination half-life (T1/2): 1.87 h
[10]; read-out: Maximal plasma drug concentration (Cmax)
  Cmax: 21.7 µM
[11]
  bcl-2 expression: failed to induce any decrease in bcl-2
[12]; 24 h continuous (single drug) or concomitant, flavopiridol 300 nM, MMC 1 μg/ml, paclitaxel 50 μM, carboplatin, hydrochloride
  Percent Apoptosis: 12%±1% and 11.6%±1%
[12]; 24 hours, FLAVO 300 nM, Taxol 50 μM, MMC 1 μg/ml, single drugs or in combination
  % APOPTOSIS: 17%
[12]; 24 hours, FLAVO 300 nM, Taxol 50 μM, MMC 1 μg/ml, single drugs or together
  percent induction of apoptosis, Concomitant: 17% ± 2%
[12]; FIG. 7, 24 hours, flavopiridol 300 nM, MMC 50 μM (as printed b127)
  induction of apoptosis (QFM): 17%±2%
[12]; MKN-74, 24 hours, Flavo 300 nM, MMC 5 μg/ml
  induction of apoptosis (condensed chromatin, 400 cells): 17% ± 2
[13]
  IC50: 6000 nM
[14]
  IC50: 400 nM
[15]
  IC50: > 800 nM
[16]
  IC50: 100 nM
[17]
  concentration range inhibiting colony formation: 250 to 300 nM
[18]; one phase I study, 72 hour infusion every 2 weeks
  MTD: 50 mg/m^2/day
[18]; the other phase I trial
  MTD: 56 mg/m^2/day

## O=c1[nH]cc(F)c(=O)[nH]1 [5-FU, 5-Fluorouracil]
[19]
  Fold-Increase in Resistance Relative to MKN-74 (p53wt): 0.6X
[20]
  Fold-Increase in Resistance Relative to MKN-74 (p53wt): 12X
[21]
  Fold-Increase in Resistance Relative to MKN-74 (p53wt): 6X
[22]
  Fold-Increase in Resistance Relative to MKN-74 (p53wt): 1X
[23]
  Fold-Increase in Resistance Relative to MKN-74 (p53wt): 11X

## N.N.[Cl][Pt][Cl] [cisplatin, Cisplatin]
[24]
  time for tumor to reach 5 times its starting size: 10 days
[19]
  Fold-Increase in Resistance Relative to MKN-74 (p53wt): 2X
[20]
  Fold-Increase in Resistance Relative to MKN-74 (p53wt): 11X
[21]
  Fold-Increase in Resistance Relative to MKN-74 (p53wt): 12X
[22]
  Fold-Increase in Resistance Relative to MKN-74 (p53wt): 1X
[23]
  Fold-Increase in Resistance Relative to MKN-74 (p53wt): 21X
[25]
  % of Cells Alive: 60%

— patent US7045495B2 (Sloan-Kettering Institute for Cancer Research, priority 1996, dated 2006)
